In brackets after ≈: the same amount, converted by molar mass. Several values for one entry are separate records, joined by “and”; a condition that tells them apart may be missing. Equal values may be shown once.

Some test systems named below: Escherichia coli W160-37; Escherichia coli ML-35p; Escherichia coli BW25113; Candida albicans; Escherichia coli 1005.
What all share (test): ≥ marks a high value that may be exact or a test limit, other limits are often not marked, values filed in µg/mL are converted to µM
The subject of test [1] is Staphylococcus aureus BCRC 10780.
Test [2] has as its system Staphylococcus aureus ATCC 8530.
The subject of test [3] is Staphylococcus aureus ATCC 25923.
The subject of test [4] is Bacillus cereus ATCC 11778.
Test [5] deals with Pseudomonas aeruginosa ATCC 9027.
The test system of test [6] is Escherichia coli ATCC 35218.
Test [7] concerns Staphylococcus epidermidis ATCC 12228.
In test [8] the test system is Staphylococcus aureus ATCC 43300.
Test [9] deals with Salmonella enterica subsp. enterica serovar Typhimurium ATCC 14028.
Test [10] relates to Staphylococcus aureus ATCC 29213.
In test [11] the test system is Candida krusei CGMCC 2.1857.
The subject of test [12] is Salmonella enterica subsp. enterica serovar Pullorum ATCC 7913.
For test [13], the system named is Candida tropicalis CGMCC 2.1975.
In test [14] the test system is Candida parapsilosis CGMCC 2.3989.
Test [15] deals with Escherichia coli ATCC 25922.
Test [16] concerns Pseudomonas aeruginosa ATCC BAA-427.
Test [17] concerns Bacillus subtilis ATCC 6633.

For the molecule `CC[C@H](C)[C@H](NC(=O)[C@H](CCCCN)NC(=O)[C@@H]1CCCN1C(=O)[C@@H](NC(=O)[C@H](CC(C)C)NC(=O)[C@H](C)NC(=O)[C@H](Cc1ccccc1)NC(=O)[C@H](Cc1ccccc1)NC(=O)CNC(C)=O)[C@@H](C)CC)C(N)=O` [GFFALIPKI], the MIC – broadly, the lowest concentration found to suppress growth – in test [1] was no less than 99.5 µM.
On to `CC[C@H](C)[C@H](NC(=O)[C@H](CC(C)C)NC(=O)[C@H](CCC(N)=O)NC(=O)[C@H](CCCCN)NC(C)=O)C(=O)N[C@@H](CCCN=C(N)N)C(=O)N[C@@H](Cc1ccccc1)C(=O)N[C@@H](CC(C)C)C(=O)N[C@@H](CCCCN)C(=O)N[C@@H](CCCN=C(N)N)C(=O)N[C@@H](CC(C)C)C(=O)N[C@@H](CC(=O)O)C(=O)N[C@@H](CCCN=C(N)N)C(=O)N[C@@H](CC(N)=O)C(=O)N[C@@H](CC(C)C)C(=O)N[C@@H](Cc1c[nH]c2ccccc12)C(=O)NCC(=O)N[C@@H](CC(C)C)C(=O)N[C@@H](C)C(N)=O` [KQLIRFLKRLDRNLWGLA], for which the values for the MIC (against Escherichia coli W160-37; in test [2]) were 4.5 µM (≈ 10.3 µg/mL) and 11 µM (≈ 25.1 µg/mL), respectively.
On to `CC(C)C[C@H](NC(=O)[C@H](CCCCN)NC(=O)[C@H](CCCCN)NC(=O)[C@H](Cc1ccccc1)NC(=O)[C@H](Cc1ccccc1)NC(=O)[C@H](CCCCN)NC(=O)[C@H](CCCCN)NC(=O)[C@H](Cc1ccccc1)NC(=O)[C@H](CCCN=C(N)N)NC(=O)[C@@H](N)CCCCN)C(=O)N[C@@H](CCCCN)C(=O)N[C@@H](CCCCN)C(=O)N[C@@H](Cc1ccccc1)C(=O)N[C@H](C(=O)N[C@@H](CCCCN)C(=O)N[C@@H](CCCCN)C(=O)NCC(=O)N[C@@H](Cc1ccccc1)C(=O)N[C@@H](CCCCN)C(=O)N[C@@H](CCCCN)C(=O)N[C@@H](Cc1ccccc1)C(=O)N[C@@H](C)C(=O)N[C@@H](CCCCN)C(=O)N[C@H](C(=O)O)C(C)C)C(C)C` [KRFKKFFKKLKKFVKKGFKKFAKV], for which the MIC against Escherichia coli ML-35p was 1.98 µM and 0.989 µM.
As for `CC(C)C[C@H](NC(=O)[C@@H](NC(=O)[C@H](CCCCN)NC(=O)[C@H](CCCCN)NC(=O)[C@@H](N)CC(C)C)C(C)C)C(=O)N[C@@H](CCCCN)C(=O)N[C@@H](C)C(=O)N[C@@H](C)C(=O)N[C@@H](C)C(N)=O` [LKKVLKAAA], the MIC was greater than 50 µM in [3], no less than 50 µM in test [4], greater than 50 µM in test [5] and no less than 50 µM in [6].
`CC[C@H](C)[C@H](NC(=O)[C@@H]1CCCN1C(=O)[C@H](Cc1ccccc1)NC(=O)[C@H](CCCN=C(N)N)NC(=O)[C@H](Cc1ccccc1)NC(=O)[C@@H](N)CCCN=C(N)N)C(=O)N[C@@H](CCCN=C(N)N)C(=O)N[C@@H](CCCN=C(N)N)C(=O)N1CCC[C@H]1C(=O)N1CCC[C@H]1C(=O)N[C@H](C(=O)N[C@@H](CCCN=C(N)N)C(=O)N1CCC[C@H]1C(=O)N1CCC[C@H]1C(=O)N[C@@H](Cc1ccccc1)C(=O)N[C@@H](Cc1ccc(O)cc1)C(=O)N1CCC[C@H]1C(=O)O)[C@@H](C)CC` [RFRFPIRRPPIRPPFYP] had an MIC in the test on Escherichia coli BW25113 of 8 µM (≈ 17.7 µg/mL).
For the molecule `CC[C@H](C)[C@H](NC(=O)[C@H](CCCN=C(N)N)NC(=O)[C@@H](NC(=O)[C@@H](NC(=O)[C@@H](NC(=O)[C@H](CCCN=C(N)N)NC(=O)[C@@H](NC(=O)[C@@H](N)CCCN=C(N)N)[C@@H](C)CC)[C@@H](C)CC)[C@@H](C)CC)[C@@H](C)CC)C(=O)N[C@@H](CCCN=C(N)N)C(N)=O` [RIRIIIRIR], the MIC in [7] worked out at 4 µM (≈ 4.83 µg/mL); in test [3], 4 µM (≈ 4.83 µg/mL); in test [8], 4 µM (≈ 4.83 µg/mL); in test [9], 4 µM (≈ 4.83 µg/mL); in test [10] it was 4 µM (≈ 4.83 µg/mL); in test [11], 2 µM (≈ 2.42 µg/mL). For the same molecule, the MIC in the test on Candida albicans is 2 µM (≈ 2.42 µg/mL); in the test on Escherichia coli 1005, 4 µM (≈ 4.83 µg/mL); in test [12], 4 µM (≈ 4.83 µg/mL); in [13], 2 µM (≈ 2.42 µg/mL); in test [14] it was 8 µM (≈ 9.66 µg/mL).
`CC(C)C[C@H](NC(=O)[C@H](CCCN=C(N)N)NC(=O)[C@H](CC(C)C)NC(=O)[C@H](CC(C)C)NC(=O)[C@H](CC(C)C)NC(=O)[C@H](CCCN=C(N)N)NC(=O)[C@H](CC(C)C)NC(=O)[C@@H](N)CCCN=C(N)N)C(=O)N[C@@H](CCCN=C(N)N)C(N)=O` [RLRLLLRLR]: the MIC in test [15] is 4 µM and 8 µM; in test [7], 4 µM (≈ 4.83 µg/mL); in [3], 8 µM (≈ 9.66 µg/mL); in test [8] it was 4 µM (≈ 4.83 µg/mL); in [9] it was 4 µM (≈ 4.83 µg/mL); in [10], 8 µM (≈ 9.66 µg/mL). Moreover, the MIC in [11] was 8 µM (≈ 9.66 µg/mL); in the test with Candida albicans, 8 µM (≈ 9.66 µg/mL); in the test with Escherichia coli 1005, 4 µM (≈ 4.83 µg/mL); in test [12], 4 µM (≈ 4.83 µg/mL); in test [13] it was 2 µM (≈ 2.42 µg/mL); in test [14], no less than 64 µM.
As to `NC(=O)[C@H](CCCN=C(N)N)NC(=O)[C@H](CCCN=C(N)N)NC(=O)[C@H](Cc1ccccc1)NC(=O)[C@H](CCCN=C(N)N)NC(=O)[C@H](Cc1ccccc1)NC(=O)[C@H](Cc1ccccc1)NC(=O)[C@H](Cc1ccccc1)NC(=O)[C@H](CCCN=C(N)N)NC(=O)[C@H](Cc1ccccc1)NC(=O)[C@H](CCCN=C(N)N)NC(=O)[C@@H](N)CCCN=C(N)N` [RRFRFFFRFRR], the MIC was 4 µM and > 2 µM in test [15]; 4 µM (≈ 6.76 µg/mL) in test [7]; 8 µM (≈ 13.5 µg/mL) in test [3]; 4 µM (≈ 6.76 µg/mL) in test [8]; 4 µM (≈ 6.76 µg/mL) in test [9]; 4 µM (≈ 6.76 µg/mL) in test [10]. The MIC in [11] amounted to 2 µM (≈ 3.38 µg/mL); with Candida albicans it was 2.83 µM (≈ 4.78 µg/mL); in the test on Escherichia coli 1005 it was 4 µM (≈ 6.76 µg/mL); in [12], 2 µM (≈ 3.38 µg/mL); in [13], 1 µM (≈ 1.69 µg/mL); in [14], 16 µM (≈ 27 µg/mL).
In the case of `CC(C)C[C@H](NC(=O)[C@H](CC(=O)O)NC(=O)[C@H](CC(C)C)NC(=O)[C@H](CCCCN)NC(=O)[C@H](CC(C)C)NC(=O)[C@H](CC(=O)O)NC(=O)[C@H](CC(C)C)NC(=O)[C@H](CCCCN)NC(=O)[C@H](CC(C)C)NC(=O)[C@H](CC(=O)O)NC(=O)[C@H](CC(C)C)NC(=O)[C@H](CCCCN)NC(=O)[C@H](CCCN=C(N)N)NC(=O)[C@H](CCCN=C(N)N)NC(=O)[C@@H](N)CCCN=C(N)N)C(=O)O` [RRRKLDLKLDLKLDL], the MIC in test [16] stood at 6 µM (≈ 11.4 µg/mL); in test [15], 6 µM (≈ 11.4 µg/mL); in test [3], 5 µM (≈ 9.48 µg/mL); in [17] it was 5 µM (≈ 9.48 µg/mL).
As for `CC[C@H](C)[C@H](NC(=O)[C@@H]1CCCN1C(=O)[C@H](CCCN=C(N)N)NC(=O)[C@H](CCCN=C(N)N)NC(=O)[C@H](Cc1c[nH]c2ccccc12)NC(=O)[C@@H](N)CCCN=C(N)N)C(=O)N[C@@H](CCCN=C(N)N)C(=O)N[C@@H](CCCN=C(N)N)C(=O)N1CCC[C@H]1C(=O)N1CCC[C@H]1C(=O)N[C@H](C(=O)N[C@@H](CCCN=C(N)N)C(=O)N1CCC[C@H]1C(=O)N1CCC[C@H]1C(=O)N[C@@H](Cc1ccccc1)C(=O)N[C@@H](Cc1ccc(O)cc1)C(=O)N[C@@H](CCCN=C(N)N)C(=O)O)[C@@H](C)CC` [RWRRPIRRPPIRPPFYR], in the test on Escherichia coli BW25113, the MIC turned out to be 8 µM (≈ 18.6 µg/mL). This lies in the single-digit micromolar range.

The values above are taken from DBAASP.
